Here are results for 17 compounds from patent EP0378755B1, “Heterocyclically substituted alpha-aryl acryl acid methyl esters and their use” (BASF Aktiengesellschaft, priority 1988, dated 1990).

The mortality is the percentage killed. A low value points to more survivors.

Common to all, as to type: in vivo
One data set has as its system Plutella maculipennis. In words: Plutella maculipennis contact test on dipped cabbage leaves. The note with it: after 48 h, 4th instar larvae. Here is the method:
Plutella maculipennis (Kohlschabe)
(§1) Versuchsart: Kontaktwirkung
Junge Kohlblätter wurden 3 sec. in die wäßrige Aufbereitung der Prüfsubstanz getaucht (Wirkstoffgehalt in ppm) und auf einen mit 0,5 ml Wasser angefeuchteten Rundfilter (Φ 9 cm) in eine Glasschale gelegt (Φ 10 cm). Darauf wurde das Blatt mit 10 Raupen im 4. Larvenstadium besetzt und die Glasschale geschlossen. Nach 48 Stunden beurteilte man die Mortalität in %.

In a further data set the test system is Prodenia litura. As to the kind of experiment: Prodenia litura feeding test on dipped maize pieces. The note with it: after 24 h. Here is the method: Prodenia litura, ägypt. Baumwollwurm
Die Versuche wurden in 250 ml Plastikbechern durchgeführt. Dabei setzte man 2 Raupen in die Gefäße und bot Stücke von Maispflanzen, die man für 5 Sekunden in die wäßrige Wirkstoffaufbereitung getaucht hatte, als Futter an. Wirkstoffgehalt in ppm. Nach 24 Stunden beurteilte man die Mortalitätsrate in %.

The subject of another data set is Musca domestica. In words: Musca domestica continuous contact test in glass dish. The following applies: after 4 h. Here is the method: Musca domestica (Stubenfliegen)
Versuchsart: Dauerkontakt
Beide Teile einer Glasschale von 10 cm Durchmesser wurden mit insgesamt 1 ml der acetonischen Lösung der Wirkstoffe benetzt. Wirkstoffgehalt der Lösung in ppm. Nach Verdunsten des Lösungsmittels brachte man je 10 Fliegen in die Schalen, schloß sie und zählte nach 4 Stunden die Tiere, die sich in Rückenlage befanden und bestimmte die Mortalitätsrate in %.

A further data set deals with Ornithodorus moubata. As to the kind of experiment: Ornithodorus moubata (tick) contact test by dipping. The following applies: after 48 h, ca. 25°C.
Excerpt: Ornithodorus moubata (Zecke)
as §1
Verwendet wurden junge Zecken, die eine Blutmahlzeit hinter sich hatten (Durchmesser 1,5 bis 2 mm). Diese Tiere nahm man mit Hilfe eines Saugrohres einzeln auf, wobei eine starke Lichtquelle die aktiven Tiere aus den Häutungsresten trieb. Je 5 Zecken wurden in einem Papierbeutel für 5 Sekunden in die wäßrige Wirkstoffaufbereitung getaucht (Wirkstoffgehalt in ppm). Die Beutel hing man danach frei auf und ermittelte nach 48 Stunden die Wirkung. Dabei wurden die Beutel an eine starke Lichtquele (60 W-Birne) gehalten; die lebenden Tiere versuchten auszuweichen und waren leicht zu erkennen. Die Versuchstemperatur betrug ca. 25°C. Man bestimmte die Mortalität in %.

The next data set has as its system Tetranychus telarius. As to the kind of experiment: Tetranychus telarius contact test, spray test on bush beans. The note with it: 120 h, after 5 days. Here is the method:
Tetranychus telarius, Rote Spinne, Kontaktwirkung, Spritzversuch
Buschbohnen in Töpfen, die das zweite Blattpaar zeigen, werden mit der wäßrigen Wirkstoffaufbereitung tropfnaß gespritzt. Die Pflanzen werden von allen Seiten mit insgesamt 50 ml Spritzbrühe besprüht. Die Pflanzen weisen einen starken Milbenbefall und reichliche Eiablage auf.
Die Wirkung wird nach 5 Tagen mittels Binokular ermittelt. Dabei wird darauf geachtet, ob alle Entwicklungsstadien der Tiere gleichmäßig erfaßt sind. Die Pflanzen stehen während der 5 Tage unter normalen Gewächshausbedingungen.

The subject of another data set is Plasmopara viticola. As to the kind of experiment: Efficacy against Plasmopara viticola on potted vine leaves, protective spray. The following applies: 0,0125 gew.%ige Spritzbrühe; vines "Müller Thurgau"; infected 8 days after spraying. An excerpt: Wirksamkeit gegen Plasmopara viticola
Blätter von Topfreben der Sorte "Müller Thurgau" wurden mit wäßriger Spritzbrühe, die 80 % Wirkstoff und 20 % Emulgiermittel in der Trockensubstanz enthielt, besprüht. Um die Wirkungsdauer der Wirkstoffe beurteilen zu können, wurden die Pflanzen nach dem Antrocknen des Spritzbelages 8 Tage im Gewächshaus aufgestellt. Erst dann wurden die Blätter mit einer Zoosporenaufschwemmung von Plasmopara viticola (Rebenperonospora) infiziert. Danach wurden die Reben zunächst für 48 Stunden in einer wasserdampfgesättigten Kammer bei 24°C und anschließend für 5 Tage in einem Gewächshaus mit Temperaturen zwischen 20 und 30°C aufgestellt. Nach dieser Zeit wurden die Pflanzen zur Beschleunigung des Sporangienträgerausbruches abermals für 16 Stunden in der feuchten Kammer aufgestellt. Dann erfolgte die Beurteilung des Ausmaßes des Pilzausbruches auf den Blattunterseiten.

In the next data set the test system is Pyrenophora teres. In words: Efficacy against Pyrenophora teres on barley seedlings, protective spray. The note with it: 0,0125 gew.%ige Spritzbrühe; barley "Igri"; inoculated 24 h after spraying. Here is the method:
Wirksamkeit gegen Pyrenophora teres
Gerstenkeimlinge der Sorte "Igri" wurden im Zweiblattstadium mit wäßrigen Suspensionen, die 80 % Wirkstoff und 20 % Emulgator in der Trockensubstanz enthielten, tropfnaß gespritzt. Nach 24 Stunden wurden die Pflanzen mit einer Sporensuspension des Pilzes Pyrenophora teres inokuliert und für 48 Stunden in eine Klimakammer mit hoher Luftfeuchtigkeit bei 18°C gestellt. Anschließend wurden die Pflanzen im Gewächshaus bei 20 bis 22°C und 70 % relativer Luftfeuchtigkeit für weitere 5 Tage kultiviert. Dann wurde das Ausmaß des Befalls ermittelt.

Another data set relates to Septoria nodorum. In words: Efficacy against Septoria nodorum on wheat plants, protective spray. The following applies: 0,05 gew.%ige Spritzbrühe; wheat "Frühgold"; inoculated 20 h after spraying, assessed after one week. Here is the method:
Wirksamkeit gegen Septoria nodorum
Weizenpflanzen der Sorte "Frühgold" wurden im Ein-Blatt-Stadium mit wäßriger Wirkstoffaufbereitung, die 80 % Wirkstoff und 20 % Emulgiermittel in der Trockensubstanz enthielt, bis zur Tropfnässe besprüht. 20 Stunden nach dem Antrocknen des Spritzbelages wurden die Pflanzen mit einer wäßrigen Sporensuspension von Septoria nodorum bis zur Tröpfchenbildung inokuliert und für eine Woche in eine Klimakammer bei Temperaturen zwischen 17 und 19°C und einer relativen Luftfeuchtigkeit von ungefähr 90 bis 95 % gestellt. Dann wurde das Ausmaß der Symptomentwicklung ermittelt.

SMILES strings stand for the structures.

Take `COC=C(C(=O)OC)c1ccccc1C=Cc1ccc(Cl)cc1` [A, 2-(β-Methoxy-α-methoxycarbonylvinyl)-4'-chlor-stilben]: the mortality at 1000 ppm in the data set with Plutella maculipennis and with Prodenia litura was 0% each time. In the data set with Musca domestica, the mortality at 2 ppm was 0%. For the same compound, the “% Mort.” value with Ornithodorus moubata (1000 ppm) is 0%.

`COC=C(C(=O)OC)c1ccccc1Oc1nc2ccccc2o1` [B, α-[2-(Benzoxazol-2'-yl-oxy)-phenyl]-β-methoxy-acrylsäuremethylester] gave a mortality at 200 ppm with Plutella maculipennis (200 ppm) of 0%. Moreover, the mortality at 1000 ppm with Plutella maculipennis stood at 80%; with Tetranychus telarius (1000 ppm) it was 0%; in the data set on Prodenia litura it was 80%. For the same compound, the mortality at 4 ppm with Musca domestica (4 ppm) stood at 80%. For the same compound, the “% Mort.” value in the data set with Ornithodorus moubata (1000 ppm) came out at 0%.

For `COC=C(C(=O)OC)c1ccccc1Oc1cncc(Cl)n1` [C, α-2-(6-Chlorpyrazin-2-oxy)-phenyl-β-methoxy-acrylsäuremethylester, reference compound], the “fungizide Wirkung” value is 60% in the data set on Plasmopara viticola and 55% in the data set on Pyrenophora teres.

As for `CO/C=C(/C(=O)OC)c1ccccc1/C=C/c1ccn(-c2ccc(Cl)cc2)c1` [Verbindung Nr. 4, Alpha-2-[2'-(N-para-Chlorphenyl-pyrrol-3''-yl)-ethen-1'-yl]-phenyl-β-methoxy-acrylsäuremethylester], the mortality at 100 ppm in the data set with Plutella maculipennis (100 ppm) came to 100%. Also, the “fungizide Wirkung” value with Septoria nodorum is listed as 95%. In the data set with Prodenia litura (40 ppm), this compound came in with a mortality at 40 ppm of 100%. Further, the mortality at 2 ppm in the data set with Musca domestica was 100%. The “% Mort.” value in the data set with Ornithodorus moubata (400 ppm) is 80%.

Consider `COC=C(C(=O)OC)c1ccccc1C=Cc1cc(C2CC2)no1` [Verbindung Nr. 42, Alpha-2-[2′-(3˝-Cyclopropyl-isoxazol-5˝-yl)-ethen-1′-yl]-phenyl-β-methoxy-acrylsäuremethylester], for which, in the data set with Plasmopara viticola, the “fungizide Wirkung” value stood at 95%.

`CO/C=C(/C(=O)OC)c1ccccc1/C=C/c1cnn(-c2ccc(C)cc2)c1` [compound 30]: the “fungizide Wirkung” value with Septoria nodorum, in the data set with Plasmopara viticola and in the data set with Pyrenophora teres was 95% each time.

For `CO/C=C(/C(=O)OC)c1ccccc1/C=C/c1cnn(-c2ccc(Cl)cc2)c1` [compound 31], the “fungizide Wirkung” value with Septoria nodorum, in the data set with Plasmopara viticola and with Pyrenophora teres was 95% throughout.

Regarding `CO/C=C(/C(=O)OC)c1ccccc1/C=C/c1cc(C(C)C)no1` [compound 41], the mortality at 100 ppm with Tetranychus telarius turned out to be 100%. Further, the “fungizide Wirkung” value in the data set with Septoria nodorum is recorded as 95%. Moreover, the “% Mort.” value in the data set with Ornithodorus moubata (1000 ppm) is 80%.

Regarding `CO/C=C(/C(=O)OC)c1ccccc1/C=C/c1cc(-c2ccc(C)cc2)no1` [compound 45], in the data set with Tetranychus telarius (40 ppm), the mortality at 40 ppm worked out at 80%. For the same compound, the “fungizide Wirkung” value in the data set on Plasmopara viticola and in the data set on Pyrenophora teres was 95% in each case. Besides, the “% Mort.” value with Ornithodorus moubata (1000 ppm) is recorded as 60%.

Turning to `CO/C=C(/C(=O)OC)c1ccccc1/C=C/c1cc(-c2ccc(C#N)cc2)no1` [compound 46], the mortality at 400 ppm in the data set on Tetranychus telarius (400 ppm) is 100%. For the same compound, the “fungizide Wirkung” value in the data set with Plasmopara viticola and in the data set with Pyrenophora teres was 95% in each case.

Consider `CO/C=C(/C(=O)OC)c1ccccc1/C=C/c1nnc(C(C)C)o1` [compound 69], for which the “fungizide Wirkung” value in the data set with Septoria nodorum and in the data set on Pyrenophora teres was 95% throughout.

For the compound `CO/C=C(/C(=O)OC)c1ccccc1/C=C/c1nc(-c2ccc(Cl)cc2)no1` [compound 84], the “fungizide Wirkung” value in the data set with Septoria nodorum and in the data set with Pyrenophora teres was 95% in each case.

Turning to `CO/C=C(/C(=O)OC)c1ccccc1/C=C/c1cnn(-c2ccc(F)cc2)c1` [compound 98], the “fungizide Wirkung” value in the data set on Septoria nodorum, in the data set with Plasmopara viticola and with Pyrenophora teres was 95% each time.

In the case of `CO/C=C(/C(=O)OC)c1ccccc1/C=C/c1cnn(-c2ccc(Br)cc2)c1` [compound 99], the “fungizide Wirkung” value in the data set with Septoria nodorum, in the data set on Plasmopara viticola and in the data set with Pyrenophora teres was 95% in each case.

As for `CO/C=C(/C(=O)OC)c1ccccc1/C=C/c1cc(C)no1` [compound 100], the “fungizide Wirkung” value with Plasmopara viticola and with Pyrenophora teres was 95% in each case.

In the data set on Tetranychus telarius, `CO/C=C(/C(=O)OC)c1ccccc1/C=C/c1cc(-c2ccccc2)no1` [compound 101] had a mortality at 100 ppm of 100%. In addition, the “fungizide Wirkung” value in the data set on Plasmopara viticola came to 95%. Also, in the data set with Ornithodorus moubata (1000 ppm), the “% Mort.” value was found to be 60%.

For the compound `CO/C=C(/C(=O)OC)c1ccccc1/C=C/c1cc(-c2c(F)cccc2Cl)no1` [compound 102], the “fungizide Wirkung” value with Septoria nodorum, with Plasmopara viticola and with Pyrenophora teres was 95% in each case.
